Molecules are shown by their SMILES. Several values for one entry are separate records, joined by “and”; a condition that tells them apart may be missing. Equal entries are not always repeated.

From paper PMC4280898, “Diazido Mixed-Amine Platinum(IV) Anticancer Complexes Activatable by Visible-Light Form Novel DNA Adducts” (Chemistry (Weinheim an Der Bergstrasse, Germany), 2013) come the findings set out here.

The assay relates to calf thymus DNA. The assay is described as follows: Binding to calf thymus DNA (differential pulse polarography). Conditions: in the dark; ri=0.05, 10 mM NaClO4, 310 K. The method, then: Binding to calf thymus DNA: Samples of double-helical calf thymus DNA (32 μg mL^−1) were treated with the Pt complexes at the ri=0.05 (ri is defined as the molar ratio of free platinum complex to nucleotide phosphates at the onset of incubation with DNA) in NaClO4 (10 mM) and incubated at 310 K in the dark for complexes 5 or 6 (Figure 7 C and D). For complexes 1 or 2, samples were irradiated continuously with 420 nm light for 30 min and then further incubated in the dark for up to 24 h so that the activated forms of the complexes could bind DNA (Figure 7 A and B). The amount of Pt bound to DNA increased with time for all four complexes. […]
the UKS method with the unrestricted PBE1PBE functional was employed. […] Thirty-two singlet and eight triplet excited states with the corresponding oscillator strengths were determined with a Time-dependent Density Functional Theory (TDDFT)[15] calculation. […]
assayed by differential pulse polarography for free, unbound platinum.[16] The amount of platinum bound to DNA was calculated by subtracting the amount of free (unbound) platinum from the total amount of platinum present in the reaction. […]
This fragment contained T7 RNA polymerase promoter (in the upper strand close to its 3'-end). […] The fragments produced in RNA synthesis on the template modified by the platinum complexes were analysed by a 6% polyacrylamide/8M urea sequencing gel. […]

For `C[NH2+][Pt@SP3-2]([Cl])([Cl])[n+]1ccccc1` [Complex 5, trans-[PtCl2(MA)(Py)]], the “Pt bound after 24 h” value was 80(±5) % and 80±5%. For `C[NH2+][Pt@SP3-2]([Cl])([Cl])[n+]1ccsc1` [Complex 6, trans-[PtCl2(MA)(Tz)]], the “Pt bound after 24 h” value is 63(±5) % and 63±5%.
